Experimental findings from patent US11666570B2, “Diagnosis and regulation of epidermal differentiation and cancer cell activity” (The Board of Trustees of the Leland Stanford Junior …, priority 2019, dated 2023) are described below.

Assay type in all cases: cell-based
Series [1] relates to RET. Nature of the series: RET expression in normal human skin organoids treated with proteasome inhibitor (Western blot). Particulars: normal skin organoids grown 3 days on dermis, MG132 20 μM for 12 hrs vs DMSO. The text has this:
Given the proximity of CacyBP and RET, we wondered whether RET stability in the skin might be regulated by ubiquitination. Fluorescent PLA signal generated by RET and ubiquitin proximity was abolished in MAB21L4-ablated epidermis using two independent sgRNAs (FIG. 5f,g). […] Loss of MAB21L4, such as occurs in cancer, would stabilize RET by preventing its Siah1-mediated degradation and may explain RET upregulation in SCC.
(§1) Human Skin Organoids and Skin Xenografts Generation of human skin organoids was performed as previously described. Briefly, 1×10^6 keratinocytes were seeded onto a 1 cm^2 section of devitalized human dermis and cultured at the air-liquid interface for up to 6 days for differentiation studies. To generate organotypic invasive epidermal neoplasia, devitalized human dermis was populated with human primary fibroblasts at least 1 week prior to keratinocyte seeding. Keratinocytes were transduced with oncogenic HRas as well as Cdk4 and seeded onto fibroblast-containing dermis. Neoplastic tissues were harvested for analysis up to 14 days post-seeding.
Western Blotting Cells and organoids were both lysed in RIPA buffer (Thermo Fisher Scientific) supplemented with phosphatase inhibitor and protease inhibitor cocktails (Sigma-Aldrich). […]
For orientation: In western blotting, separated proteins are transferred to a membrane and probed.

Series [2] addresses T1, RET (Homo sapiens, UniProt P07949).
T1 construct: endogenous in cells; host or cells: human skin organoids from primary human keratinocytes seeded on devitalized human dermis
Put plainly: RET phosphorylation at Y1062 in non-transformed human skin organoids (Western blot). The settings on record: non-transformed human skin organoids grown 7 days on dermis, BLU-667 15 nM vs DMSO. The text has this: (§2) As loss of differentiation may be coupled to other cancer-enabling behaviors, we next considered the therapeutic implications of aberrant RET activation in SCC. […] We next used MAB21L4-intact or MAB21L4-ablated primary human keratinocytes to generate skin organoids programmed to undergo invasive neoplasia by oncogenic Ras and Cdk4. These neoplastic tissues were maintained in culture medium containing BLU-667 to investigate the contribution of RET to SCC development.
Human Skin Organoids and Skin Xenografts Generation of human skin organoids was performed as previously described. […] To generate organotypic invasive epidermal neoplasia, devitalized human dermis was populated with human primary fibroblasts at least 1 week prior to keratinocyte seeding. Keratinocytes were transduced with oncogenic HRas as well as Cdk4 and seeded onto fibroblast-containing dermis. Neoplastic tissues were harvested for analysis up to 14 days post-seeding.
Western Blotting Cells and organoids were both lysed in RIPA buffer (Thermo Fisher Scientific) supplemented with phosphatase inhibitor and protease inhibitor cocktails (Sigma-Aldrich). For human skin organoids, the epidermis was separated from the dermis, immersed in RIPA buffer, and subjected to 4 cycles of disruption using the gentleMACS Dissociator (Miltenyi Biotec). […]

In a further series the test system is human skin organoids. Nature of the series: Stratification and epidermal thickness of organotypic human epidermis under BLU-667 (immunofluorescence). The settings on record: vs vehicle (DMSO).
From the text: as §2
(§3) To test this, we assessed neoplastic invasion in human skin organoids with BLU-667 added to the culture medium after early malignant transformation occurred. […] Human skin tissues undergoing malignant transformation by enforced expression of oncogenic Ras and Cdk4 were then subjected to BLU-667 treatment following the onset of early neoplastic invasion.
Human Skin Organoids and Skin Xenografts Generation of human skin organoids was performed as previously described. Briefly, 1×10^6 keratinocytes were seeded onto a 1 cm^2 section of devitalized human dermis and cultured at the air-liquid interface for up to 6 days for differentiation studies. To generate organotypic invasive epidermal neoplasia, devitalized human dermis was populated with human primary fibroblasts at least 1 week prior to keratinocyte seeding. Keratinocytes were transduced with oncogenic HRas as well as Cdk4 and seeded onto fibroblast-containing dermis. […]

Series [3] has as its system oncogenic Ras-transformed human skin organoids. Nature of the series: Neoplastic invasion in human skin organoids transformed by oncogenic Ras and Cdk4.
From the text: as §2, §3, §1
Immunofluorescence Human skin organoids were embedded in Optimal Cutting Temperature (OCT) compound (Sakura Finetek) and 7 μm tissue sections were mounted onto polylysine slides (Thermo Scientific). Tissue cryosections were fixed in 100% methanol at −20° C. for 10 min and subsequently permeabilized by incubation with 0.1% Triton X-100 (Sigma-Aldrich) in PBS. The tissues were then incubated for 30 minutes at room temperature with blocking buffer (horse serum diluted 1:10 in PBS) and then for 1 hour with primary antibodies diluted in 0.05% Triton X-100 (Sigma-Aldrich) and 1:100 horse serum in PBS. […]
Images of several zstacks were acquired and the maximum intensity projection image was generated by using the Fiji-ImageJ package. Invasion index was calculated as integrated density of the Keratin 5 staining underneath the basement membrane divided by the length of the basement membrane. Integrated density and basement membrane length were both analyzed using the Fiji-ImageJ package. The invasion depth was calculated as the distance between the basement membrane and the most distant invading cell in each field of view analyzed. The distance between the basement membrane and the most distant invading cell was analyzed in 3 areas of each field of view using the Fiji-ImageJ package and was averaged. […]

Setting [4] is: MAB21L4-intact or MAB21L4-ablated Ras/Cdk4 organoids, 7 days in medium containing BLU-667 15 nM.
Where [5] appears, read: Ras/Cdk4 organoids, BLU-667 15 nM initiated on day 7 after early invasion, analysed day 14, vs vehicle.

Residues, ends and D or L forms follow the SMILES beside them. *: point of attachment. Cbz = O=C(OCc1ccccc1)*

T1 sequence (P07949 29-1114): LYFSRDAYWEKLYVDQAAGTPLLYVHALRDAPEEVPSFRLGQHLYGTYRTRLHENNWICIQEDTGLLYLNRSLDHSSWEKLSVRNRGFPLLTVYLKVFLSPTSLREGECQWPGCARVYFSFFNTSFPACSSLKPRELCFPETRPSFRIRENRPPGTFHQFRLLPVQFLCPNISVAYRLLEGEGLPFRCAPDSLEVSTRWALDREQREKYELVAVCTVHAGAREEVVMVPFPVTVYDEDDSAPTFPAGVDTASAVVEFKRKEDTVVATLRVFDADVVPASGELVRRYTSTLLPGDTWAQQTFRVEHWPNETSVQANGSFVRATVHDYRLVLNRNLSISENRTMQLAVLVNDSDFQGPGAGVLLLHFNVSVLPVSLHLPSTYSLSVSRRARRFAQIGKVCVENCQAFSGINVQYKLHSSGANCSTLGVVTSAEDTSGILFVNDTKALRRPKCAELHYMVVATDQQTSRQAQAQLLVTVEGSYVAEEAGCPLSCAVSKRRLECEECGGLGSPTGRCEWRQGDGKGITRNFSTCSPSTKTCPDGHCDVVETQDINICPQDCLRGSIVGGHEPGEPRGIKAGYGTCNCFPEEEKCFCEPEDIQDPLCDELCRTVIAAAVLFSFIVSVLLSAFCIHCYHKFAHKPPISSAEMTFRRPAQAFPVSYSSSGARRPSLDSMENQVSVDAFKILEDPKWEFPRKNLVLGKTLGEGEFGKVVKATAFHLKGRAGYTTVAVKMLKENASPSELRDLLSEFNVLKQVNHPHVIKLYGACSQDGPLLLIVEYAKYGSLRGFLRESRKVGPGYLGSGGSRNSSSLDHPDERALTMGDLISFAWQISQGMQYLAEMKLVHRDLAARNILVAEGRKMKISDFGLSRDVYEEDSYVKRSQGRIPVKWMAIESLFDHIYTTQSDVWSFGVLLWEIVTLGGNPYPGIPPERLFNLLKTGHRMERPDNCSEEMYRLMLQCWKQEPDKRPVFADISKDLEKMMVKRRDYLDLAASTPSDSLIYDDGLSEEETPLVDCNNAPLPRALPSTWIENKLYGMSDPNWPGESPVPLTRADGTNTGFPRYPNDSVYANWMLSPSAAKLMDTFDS

With `CC(C)C[C@@H](C=O)NC(=O)[C@H](CC(C)C)NC(=O)[C@H](CC(C)C)NC(=O)OCc1ccccc1` [MG132] (Cbz-Leu-Leu-Leu-aldehyde), the RET expression result in the series with RET [1] is “RET accumulation”.

`CO[C@]1(C(=O)N[C@@H](C)c2ccc(-n3cc(F)cn3)nc2)CC[C@H](c2nc(C)cc(Nc3cc(C)[nH]n3)n2)CC1` [BLU-667]: the “RET phosphorylation at Y1062 (suppression of RET signaling)” value on RET [2] was “reduction in RET phosphorylation at Y1062”. Further, the “epidermal stratification and thickness” value in the series with human skin organoids (late-onset treatment: BLU-667 15 nM initiated on day 7, 14 days of growth) was “did not adversely affect epidermal stratification and thickness”. The “stratification and epidermal thickness” value in the series with human skin organoids (organoids cultured in continuous presence of BLU-667 15 nM, 7 days) is on record as “did not differ substantially from vehicle controls”. In series [3] (setting [4]), the basement membrane degradation result was “prevented basement membrane degradation” and the “neoplastic invasion (invasion index)” value is reported as “suppressed invasion accelerated by MAB21L4 loss”. In series [3] (setting [5]), the “keratinocytes below the basement membrane (invasion index), established invasion” value is “fewer keratinocytes below the basement membrane” and the “tumor infiltration depth (invasion depth), established invasion” value is listed as “reduction in tumor infiltration depth”.
